According to US11351151B2, “Compound having anticancer activity and preparation method and application” (3D Medicines (Beijing) Co., Ltd., priority 2016, dated 2022):

Key:
Experiment in all cases: Cell proliferation assay (Alamar Blue)
Format in all cases: cell-based
SNU886 = settings: SNU-886, 144 h; SNU886 liver cancer cell line; 6 days
How it was run: (§1)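 The compounds were tested over nine concentrations diluted 3.16-fold from a top dose of 30 or 100 μM, added 4 h after seeding log-phase cells at 500–1×10^4 per well. Plates were incubated for 6 days, then AlamarBlue fluorescence was read and IC50 values obtained by nonlinear regression.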

JHH5 = settings: 144 h; JHH5 liver cancer cell line; 6 days
How it was run: as §1

LC-2-ad = settings: Homo sapiens, 144 h; LC-2-ad tumor cell line; 6 days
How it was run: as §1

NCl-H716 = settings: 144 h; NCl-H716 tumor cell line; 6 days
How it was run: as §1

TE-6 = settings: Homo sapiens, 144 h; TE-6 tumor cell line; 6 days
How it was run: as §1

CCRF-CEM = settings: Homo sapiens, 144 h; CCRF-CEM tumor cell line; 6 days
How it was run: as §1

SNU475 = settings: Homo sapiens, SNU-475, 144 h; SNU475 liver cancer cell line; 6 days
How it was run: as §1

NCl-H2170 = settings: 144 h; NCl-H2170 tumor cell line; 6 days
How it was run: as §1

SK-HEP-1 = settings: Homo sapiens, SK-HEP1, 144 h; SK-HEP-1 liver cancer cell line; 6 days
How it was run: as §1

MDA-MB-231 = settings: Homo sapiens, 144 h; MDA-MB-231 tumor cell line; 6 days
How it was run: as §1

DU145 = settings: Homo sapiens, DU-145, 144 h; DU145 tumor cell line; 6 days
How it was run: as §1

HUH1 = settings: Homo sapiens, HuH-1, 144 h; HUH1 liver cancer cell line; 6 days
How it was run: as §1

LNCAP-clone-FGC = settings: Homo sapiens, 144 h; LNCAP-clone-FGC tumor cell line; 6 days
How it was run: as §1

HT1080 = settings: Homo sapiens, HT-1080, 144 h; HT1080 tumor cell line; 6 days
How it was run: as §1

JHH2 = settings: JHH-2, 144 h; JHH2 liver cancer cell line; 6 days
How it was run: as §1

SNU354 = settings: Homo sapiens, SNU-354, 144 h; SNU354 liver cancer cell line; 6 days
How it was run: as §1

HUH6 = settings: Homo sapiens, HuH-6, 144 h; HUH6 liver cancer cell line; 6 days
How it was run: as §1

SNU449 = settings: Homo sapiens, SNU-449, 144 h; SNU449 liver cancer cell line; 6 days
How it was run: as §1

HLE = settings: Homo sapiens, 144 h; HLE liver cancer cell line; 6 days
How it was run: as §1

NCl-H526 = settings: 144 h; NCl-H526 tumor cell line; 6 days
How it was run: as §1

SNU398 = settings: Homo sapiens, SNU-398, 144 h; SNU398 liver cancer cell line; 6 days
How it was run: as §1

NCl-H661 = settings: 144 h; NCl-H661 tumor cell line; 6 days
How it was run: as §1

Hep3B2.1-7 = settings: 144 h; Hep3B2.1-7 liver cancer cell line; 6 days
How it was run: as §1

Structure (SMILES)	IC50 (SNU886) [µM]	IC50 (JHH5) [µM]	IC50 (LC-2-ad) [µM]	IC50 (NCl-H716) [µM]	IC50 (TE-6) [µM]	IC50 (CCRF-CEM) [µM]	IC50 (SNU475) [µM]	IC50 (NCl-H2170) [µM]	IC50 (SK-HEP-1) [µM]	IC50 (MDA-MB-231) [µM]	IC50 (DU145) [µM]	IC50 (HUH1) [µM]	IC50 (LNCAP-clone-FGC) [µM]	IC50 (HT1080) [µM]	IC50 (JHH2) [µM]	IC50 (SNU354) [µM]	IC50 (HUH6) [µM]	IC50 (SNU449) [µM]	IC50 (HLE) [µM]	IC50 (NCl-H526) [µM]	also measured
Cc1ccc(F)c(NC(=O)Nc2ccc(-c3cccc4c3c(N)nn4C(=O)CCCCCNC(=O)C[C@H](N)C(=O)N[C@@H](CCC(=O)N[C@@H](CCC(=O)N[C@@H](CCC(=O)N[C@@H](CCC(=O)N[C@@H](CCC(=O)N[C@@H](CCC(=O)N[C@@H](CCC(=O)N[C@@H](CCC(=O)N[C@@H](CCC(=O)O)C(=O)O)C(=O)O)C(=O)O)C(=O)O)C(=O)O)C(=O)O)C(=O)O)C(=O)O)C(=O)O)cc2)c1 [Compound 6]	> 100	> 100	67.8	92.1	> 100	90.5	> 100	> 100	> 100	> 100	63.3	> 100	> 100	> 100	> 100	> 100	88.7	> 100	68.9	> 100	IC50 (SNU398): > 100 µM; IC50 (NCl-H661): > 100 µM; IC50 (Hep3B2.1-7): 95.6 µM
Cc1ccc(F)c(NC(=O)Nc2ccc(-c3cccc4c3c(N)nn4C(=O)CCCCCCCCCCCNC(=O)C[C@H](N)C(=O)N[C@@H](CCC(=O)O)C(=O)O)cc2)c1 [Compound 7]	22	> 100	54.3	8.45	74.3	15	40.7	22.5	29.2	32.1	17.2	21.2	26.7	> 100	> 100	30.2	> 100	31.6	36.3	> 100	IC50 (SNU398): 18.1 µM; IC50 (NCl-H661): 86.7 µM; IC50 (Hep3B2.1-7): 13 µM
Cc1ccc(F)c(NC(=O)Nc2ccc(-c3cccc4c3c(N)nn4C(=O)CCCCCCCCCCCNC(=O)C[C@H](N)C(=O)N[C@@H](CCC(=O)N[C@@H](CCC(=O)N[C@@H](CCC(=O)N[C@@H](CCC(=O)O)C(=O)O)C(=O)O)C(=O)O)C(=O)O)cc2)c1 [Compound 8]	61	48.6	50.2	26.9	> 100	> 100	57.5	51.9	> 100	53.5	20.7	31.9	> 100	45.3	> 100	40.6	28.2	60.3	36.8	100	IC50 (SNU398): 50.1 µM; IC50 (NCl-H661): > 100 µM; IC50 (Hep3B2.1-7): 36.2 µM
Cc1ccc(F)c(NC(=O)Nc2ccc(-c3cccc4c3c(N)nn4C(=O)CCCCCCCCCCCNC(=O)C[C@H](N)C(=O)N[C@@H](CCC(=O)N[C@@H](CCC(=O)N[C@@H](CCC(=O)N[C@@H](CCC(=O)N[C@@H](CCC(=O)N[C@@H](CCC(=O)N[C@@H](CCC(=O)N[C@@H](CCC(=O)N[C@@H](CCC(=O)O)C(=O)O)C(=O)O)C(=O)O)C(=O)O)C(=O)O)C(=O)O)C(=O)O)C(=O)O)C(=O)O)cc2)c1 [Compound 9]	> 100	> 100	70.5	43.1	> 100	30.2	77.8	84	> 100	81.1	34.5	52.4	> 100	> 100	> 100	67.3	50.3	90	53.3	> 100	IC50 (SNU398): 82.7 µM; IC50 (NCl-H661): > 100 µM; IC50 (Hep3B2.1-7): 52.8 µM
Cc1ccc(F)c(NC(=O)Nc2ccc(-c3cccc4c3c(N)nn4C(=O)C[C@H](N)C(=O)O)cc2)c1 [Compound 10]	1.45	12.4	6.38	1.93	4.11	1.74	3.88	1.24	2.75	3.17	1.34	3.47	5.13	8.82	25.1	4.57	0.15	4.91	1.26	4.39	IC50 (SNU398): 2.99 µM; IC50 (NCl-H661): 5.47 µM; IC50 (Hep3B2.1-7): 1.23 µM
Cc1ccc(F)c(NC(=O)Nc2ccc(-c3cccc4c3c(N)nn4C(=O)CCCCCNC(=O)C[C@H](N)C(=O)O)cc2)c1 [Compound 11]	> 100	87.7	27.5	82.2	> 100	40.7	76.1	72.8	55.4	80.4	26.4	50.6	70.9	94.4	93.5	63.3	46.4	> 100	55.2	92.4	IC50 (SNU398): 79 µM; IC50 (NCl-H661): > 100 µM; IC50 (Hep3B2.1-7): 50.4 µM
Cc1ccc(F)c(NC(=O)Nc2ccc(-c3cccc4c3c(N)nn4C(=O)CCCCCCCCCCCNC(=O)C[C@H](N)C(=O)O)cc2)c1 [Compound 12]	> 30	> 30	> 30	> 30	> 30	> 30	> 30	> 30	> 30	> 30	> 30	> 30	> 30	> 30	> 30	> 30	10.6	> 30	> 30	> 30	IC50 (SNU398): > 30 µM; IC50 (NCl-H661): > 30 µM; IC50 (Hep3B2.1-7): > 30 µM
Cc1ccc(F)c(NC(=O)Nc2ccc(-c3cccc4[nH]nc(N)c34)cc2)c1 [Linifanib, reference compound]	4.48	10	4.78	4.1	4.09	5.03	5.37	4	7.11	4.03	5.01	3.25	11.3	6.4	29.5	4.58	> 30	10.2	3.93	7.8	IC50 (SNU398): 1.91 µM; IC50 (NCl-H661): 13.3 µM; IC50 (Hep3B2.1-7): 1.96 µM
